Data from patent US20220089599A1, “ALKYNYL NICOTINAMIDE COMPOUNDS AS KINASE INHIBITORS” (PURDUE RESEARCH FOUNDATION, priority 2018, published 2022).
Read-outs that look alike come from different tables or passages of the source.

Assays:
[1] = tested on: MOLM14-D835Y; type: cell-based
[2] = tested on: MOLM14-F691L; type: cell-based; conditions: Homo sapiens
[3] = tested on: K562; type: cell-based; conditions: Homo sapiens
[4] = tested on: KCL22; type: cell-based; conditions: Homo sapiens
[5] = tested on: KCL22-IR; type: cell-based; conditions: read-out: IC50 KCL22-IR
[6] = tested on: MOLM14; type: cell-based; conditions: Homo sapiens
[7] = target: c-SRC (Homo sapiens, UniProt P12931); assay: Kinase IC50 at Reaction Biology; type: biochemical
[8] = tested on: MV-4-11; type: cell-based; conditions: Homo sapiens
[9] = tested on: MOLM13-res; type: cell-based; conditions: read-out: IC50 MOLM13-res
[10] = tested on: H520; type: cell-based; conditions: Homo sapiens
[11] = tested on: LC2/Ad; assay: cells; conditions: Homo sapiens, LC-2-ad, read-out: IC50 LC2/Ad
[12] = Homo sapiens, cell activities of other nicotinamide compounds, MOLM-14 (ITD, D85Y), read-out: IC50 MOLM-14 (ITD, D85Y)
[13] = cell activities of other nicotinamide compounds, MOLM-14 (ITD, F691L), read-out: IC50 MOLM-14 (ITD, F691L)
[14] = cell activities of other nicotinamide compounds, K562, read-out: IC50 K562
[15] = KCL-22, cell activities of other nicotinamide compounds, KCL22, read-out: IC50 KCL22
[16] = cell activities of other nicotinamide compounds, KCL22-IR
[17] = cell activities of other nicotinamide compounds, MOLM-14, read-out: IC50 MOLM-14

Chain of c-SRC (P12931 whole entry): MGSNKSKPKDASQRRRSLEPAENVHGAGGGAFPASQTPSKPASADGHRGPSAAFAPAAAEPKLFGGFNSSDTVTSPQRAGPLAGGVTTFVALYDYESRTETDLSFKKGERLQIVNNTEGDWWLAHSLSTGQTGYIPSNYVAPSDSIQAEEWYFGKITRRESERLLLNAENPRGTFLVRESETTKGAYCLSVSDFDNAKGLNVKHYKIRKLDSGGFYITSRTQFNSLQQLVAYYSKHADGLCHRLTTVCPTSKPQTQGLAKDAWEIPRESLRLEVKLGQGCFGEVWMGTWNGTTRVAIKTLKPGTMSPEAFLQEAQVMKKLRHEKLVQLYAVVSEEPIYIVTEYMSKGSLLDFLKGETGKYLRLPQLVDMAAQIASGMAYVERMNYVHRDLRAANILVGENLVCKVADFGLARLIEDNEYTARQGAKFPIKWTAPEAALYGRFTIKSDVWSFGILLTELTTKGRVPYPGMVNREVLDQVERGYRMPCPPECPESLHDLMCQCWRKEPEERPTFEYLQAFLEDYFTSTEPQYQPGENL

SMILES | IC50 [1, 12] [nM] | IC50 [2, 13] [nM] | IC50 [3, 14] [nM] | IC50 [4, 15] [nM] | IC50 [5, 16] [nM] | IC50 [6, 17] [nM] | further results
CN1CCN(Cc2ccc(NC(=O)c3cncc(C#Cc4cncc5nccn45)c3)cc2C(F)(F)F)CC1 [HSL407, 5-(imidazo[1,2-a]pyrazin-5-ylethynyl)-N-(4-((4-methylpiperazin-1-yl)methyl)-3-(trifluoromethyl)phenyl)nicotinamide] | 42.9 ± 0.7 | 6.87 ± 0.13 | 1.83 ± 0.02 | 2.93 ± 0.04 | 49.7 ± 2.5 | – | –
CN1CCN(Cc2ccc(NC(=O)c3cncc(C#Cc4cnc5ncccn45)c3)cc2C(F)(F)F)CC1 [HSL382, 5-(imidazo[1,2-a]pyrimidin-3-ylethynyl)-N-(4-((4-methylpiperazin-1-yl)methyl)-3-(trifluoromethyl)phenyl)nicotinamide] | > 100 | > 100 | > 100 | > 100 | > 100 | 5.15 ± 0.09 | –
CN1CCN(Cc2ccc(NC(=O)c3cncc(C#Cc4cnc5cccnn45)c3)cc2C(F)(F)F)CC1 [HSN748, 5-(imidazo[1,2-b]pyridazin-3-ylethynyl)-N-(4-((4-methylpiperazin-1-yl)methyl)-3-(trifluoromethyl)phenyl)nicotinamide] | – | – | – | – | – | – | IC50 ([7]; [ATP] = 100 μM, read-out: IC50 c-SRC): > 1000 nM; IC50 ([7]; read-out: IC50 c-Src kinase): > 1000 nM; IC50 ([8]; MV4-11, growth inhibition, MV-4-11 (FLT3) cell line, read-out: IC50 MV-4-11): 0.07 nM; IC50 ([9]; growth inhibition, MOLM13-res cell line): 1.73 nM; IC50 ([6]; MOLM-14, growth inhibition, MOLM14 cell line, read-out: IC50 MOLM14): 0.05 nM; IC50 ([1]; growth inhibition, quizartinib-resistant AML cell line, read-out: IC50 MOLM14-D835Y): 0.69 nM; IC50 ([2]; MOLM-14, growth inhibition, gilteritinib-resistant AML cell line Molm14 (ITD, F691L), read-out: IC50 MOLM14-F691L): 0.18 nM; IC50 ([3]; growth inhibition, K562 (ABL1) cell line, read-out: IC50 K562): 0.8 nM; IC50 ([4]; KCL-22, growth inhibition, KCL22 cell line, read-out: IC50 KCL22): 1.32 nM; IC50 ([5]; growth inhibition, KCL22-IR cell line): 0.23 nM; IC50 ([10]; NCI-H520, growth inhibition, H520 cell line, read-out: IC50 H520): 839 nM
CN1CCN(Cc2ccc(NC(=O)c3cncc(C#Cc4cnc5ccnn5c4)c3)cc2C(F)(F)F)CC1 [HSL412, N-(4-((4-methylpiperazin-1-yl)methyl)-3-(trifluoromethyl)phenyl)-5-(pyrazolo[1,5-a]pyrimidin-6-ylethynyl)nicotinamide] | > 100 | 17.8 ± 1.3 | 28.1 ± 0.6 | 28.1 ± 0.4 | – | – | –
Cc1ccc(C(=O)Nc2ccc(CN3CCN(C)CC3)c(C(F)(F)F)c2)cc1C#Cc1cnc2cccnn12 [Ponatinib, reference compound] | – | – | – | – | – | – | IC50 ([8]; MV4-11, read-out: IC50 MV-4-11): 0.09 nM; IC50 [9]: 24.1 nM; IC50 ([6]; MOLM-14, read-out: IC50 MOLM14): 0.45 nM; IC50 ([1]; read-out: IC50 MOLM14-D835Y): 52.6 nM; IC50 ([2]; MOLM-14, read-out: IC50 MOLM14-F691L): 6.8 nM; IC50 ([3]; K562, read-out: IC50 K562): 0.6 nM; IC50 ([4]; KCL-22, read-out: IC50 KCL22): 0.14 nM; IC50 [5]: 0.66 nM; IC50 ([10]; NCI-H520, read-out: IC50 H520): 128 nM; IC50 [11]: 35.1 nM
CN1CCN(Cc2ccc(NC(=O)c3cncc(C#Cc4cnc5cnccn45)c3)cc2C(F)(F)F)CC1 [HSL385, 5-(imidazo[1,2-a]pyrazin-3-ylethynyl)-N-(4-((4-methylpiperazin-1-yl)methyl)-3-(trifluoromethyl)phenyl)nicotinamide] | 28.5 ± 0.9 | – | 0.94 ± 0.002 | 2.62 ± 0.06 | 17.2 ± 0.8 | 0.15 ± 0.007 | –

Continued by falling IC50 [1, 12], values first:

IC50 [1, 12] [nM] | IC50 [2, 13] [nM] | IC50 [3, 14] [nM] | IC50 [4, 15] [nM] | IC50 [5, 16] [nM] | IC50 [6, 17] [nM] | SMILES | further results
7.4 ± 0.04 | – | 0.45 ± 0.002 | 1.4 ± 0.02 | 4.2 ± 0.04 | 0.075 ± 0.0005 | CN1CCN(Cc2ccc(C(=O)Nc3cncc(C#Cc4cnc5cccnn45)c3)cc2C(F)(F)F)CC1 [HSL338, N-(5-(imidazo[1,2-b]pyridazin-3-ylethynyl)pyridin-3-yl)-4-((4-methylpiperazin-1-yl)methyl)-3-(trifluoromethyl)benzamide] | –
7.12 ± 0.06 | 0.55 ± 0.06 | 0.57 ± 0.003 | 0.89 ± 0.005 | 4.24 ± 0.05 | 0.04 ± 0.006 | CN1CCN(Cc2ccc(NC(=O)c3cncc(C#Cc4cnc5ccccn45)c3)cc2C(F)(F)F)CC1 [HSL381, 5-(imidazo[1,2-a]pyridin-3-ylethynyl)-N-(4-((4-methylpiperazin-1-yl)methyl)-3-(trifluoromethyl)phenyl)nicotinamide] | –
2.24 ± 0.08 | 0.57 ± 0.004 | 0.059 ± 0.002 | 0.06 ± 0.002 | 0.46 ± 0.01 | – | Cc1ncc(C(=O)Nc2ccc(CN3CCN(C)CC3)c(C(F)(F)F)c2)cc1C#Cc1cnc2cccnn12 [HSL420, 5-(imidazo[1,2-b]pyridazin-3-ylethynyl)-6-methyl-N-(4-((4-methylpiperazin-1-yl)methyl)-3-(trifluoromethyl)phenyl)nicotinamide] | –
